Assays:
PIM1 [1] = biological target: PIM1; design: method as in PMID 36297298; details: apparent Ki from IC50 and Km (ATP); cited from earlier work
K-562 cells = test: Resazurin cell viability assay; assay type: cell-based, human; details: Homo sapiens
Experimental: Cell viability was determined by a resazurin-based assay as described previously. Briefly, 5 × 10^3 cells/well were seeded into 96-well plates (Corning Inc., Corning, NY, USA) in 180 µL of RPMI 1640 medium and incubated overnight at 37 °C with 5% CO2. Next day, cells were treated with rilpivirine after serially diluted (1:2 dilution for final concentrations ranging from 0.625 µM to 40 µM) or DMSO (0.1%) for specified time periods (24, 48, or 72 h). At the end of the treatment period, 20 µL of resazurin (0.1 mg/mL in PBS) was added per well and incubated for further 4 h. Fluorescence intensities were recorded at 570 nm (excitation)/585 nm (emission) using an EnVision® multilabel plate reader (PerkinElmer, MA, USA). Drug concentrations required for cell viability reduction by 50% (GI50) compared with untreated (DMSO vehicle-treated only) control were determined by a non-linear regression model using GraphPad Prism software version 7.02 (La Jolla, CA, USA).

[2] = Pharmacokinetic analysis in mice; assay type: in vivo, mouse
Experimental: A pharmacokinetic study was performed as described previously. The pharmacokinetics of rilpivirine was determined after administration of single 50 mg/kg oral (PO) and 2 mg/kg intravenous (IV) doses to male BALB/c hairy mice (n = 6 per route). Briefly, three blood samples were collected from both cheeks (left and right) and the heart of each mouse. A validated liquid chromatography-mass spectrometry/mass spectrometry (LC-MS/MS) technique was used to measure the drug concentrations in the plasma. Pharmacokinetic parameters were estimated using compartmental models (Phoenix, Certara, NJ, USA) and analysis was performed with WinNonlin 6.4 software (Princeton, NJ, USA).

NB4 cells = test: Colony formation assay; assay type: cell-based, human; details: 2.5, 5, or 10 µM, 10 days
Experimental: (§1) For colony formation assay, 2 × 10^3 cells/well (in 6-well plates) were treated for 10 days with rilpivirine (2.5, 5, or 10 µM) or DMSO (0.1%) and incubated with 1.5 mL of cytokine-free H4230 medium ([…] Technologies, Inc., Vancouver, BC, Canada). After the incubation period, cells were stained with 300 µL/well of 3-(4,5-dimethylthiazol-2-yl)-2,5-diphenyltetrazolium bromide solution (0.5 mg/mL in PBS) (Sigma-Aldrich, St Louis, MO, USA) and incubated for 1 h. Colonies were then counted on an inverted microscope.

HL-60 cells = test: Colony formation assay; assay type: cell-based, human; details: 2.5, 5, or 10 µM, 10 days
Experimental: as §1

FGFR1(V561M)(h) = biological target: T1, FGFR1(V561M)(h) (Homo sapiens, UniProt P11362, V561M); test: Kinase panel; assay type: biochemical; details: read-out: % Residual Activity
T1 construct: purchased Eurofins (KinaseProfiler)
How it was run: (§2)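 Rilpivirine was screened across the kinome for selectivity; inhibition was then quantified radiometrically at Km ATP, and Cheng–Prusoff was applied to derive Ki from IC50.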

PKD2(h) = biological target: T2, PKD2(h) (Homo sapiens, UniProt Q9BZL6); test: Kinase panel; assay type: biochemical; details: read-out: % Residual Activity
T2 construct: purchased Eurofins (KinaseProfiler)
How it was run: as §2

EGFR(L861Q)(h) = biological target: T3, EGFR(L861Q)(h) (Homo sapiens, UniProt P00533, L861Q); test: Kinase panel; assay type: biochemical; details: read-out: % Residual Activity
T3 construct: purchased Eurofins (KinaseProfiler)
How it was run: as §2

PKBγ(h) = biological target: T4, PKBγ(h) (Homo sapiens, UniProt Q9Y243); test: Kinase panel; assay type: biochemical; details: read-out: % Residual Activity
T4 construct: purchased Eurofins (KinaseProfiler)
How it was run: as §2

CK1(y) = test: Kinase panel; assay type: biochemical, yeast; details: 1 μM
Experimental: (§3) Kinome-wide selectivity of rilpivirine was measured using the kinase screening and profiling service of Eurofins Scientific (Le bois l’Evêque 86600. Celle-Lévescault, France) and Ki values were determined using radioisotope-based assays by Reaction Biology Corporation (Malvern, PA, USA). The experimental details of Eurofin Scientific and Reaction Biology services for relevant assays are available at https://www.eurofinsdiscoveryservices.com/services/in-Vitro-assays/kinases/kinase-profiler (accessed on 7 July 2021) and https://www.reactionbiology.com (accessed on 7 July 2021), respectively. Ki values were estimated from the corresponding IC50 values using the Cheng–Prusoff equation [21] and the Km (ATP) of individual kinase was used for IC50 determination.

PIM1 [3] = test: Radioisotope-based kinase assay (Ki); assay type: biochemical; details: PIM1 vs Aurora A
Experimental: as §3

YES = biological target: T5, YES (Homo sapiens, UniProt P07947); test: Radioisotope-based kinase assay (Ki); assay type: biochemical; details: apparent Ki from IC50 and Km (ATP)
T5 construct: purchased Reaction Biology Corporation (assay service)
Experimental: as §3

LYN = biological target: T6, LYN (Homo sapiens, UniProt P07948); test: Radioisotope-based kinase assay (Ki); assay type: biochemical; details: apparent Ki from IC50 and Km (ATP)
T6 construct: purchased Reaction Biology Corporation (assay service)
Experimental: as §3

HL-60 xenograft = test: In vivo anti-cancer efficacy, HL-60 xenograft; details: 200 mg/kg oral gavage once daily for 15 days
Experimental: An in vivo anti-cancer efficacy study was performed as reported previously. Briefly, female nude BALB/c mice (6–8 weeks of age) were engrafted with HL-60 human leukaemic cells subcutaneously into the rear flanks. Before inoculation, HL-60 (5 × 10^6) cells were cultured, harvested, and re-suspended in a 1:1 mixture of serum-free media and Matrigel (BD Biosciences, NSW, Australia). Mice with 100–200 mm^3 tumour size were allocated randomly into the control or treatment group. Rilpivirine and vehicle (0.5% HPMC) were administered by oral gavage daily. Mice were checked daily for any clinical signs of toxicity, including weight loss. Tumour volume was measured every other day and was calculated as length × width × height. At the end of the study period, or if clinical endpoints were reached as determined by a clinical record sheet score of 4, body condition score of 1, weight loss of ≥15%, or tumour growth of ≥2000 mm^3, the mouse was euthanised. Data analysis was performed using GraphPad Prism software version 7.02 (La Jolla, CA, USA).

[4] = male, BALB/c hairy, mouse, plasma, IV, 2 mg/kg single dose
[5] = male, BALB/c hairy, mouse, plasma, PO, 50 mg/kg single dose

T2 sequence (Q9BZL6 whole entry): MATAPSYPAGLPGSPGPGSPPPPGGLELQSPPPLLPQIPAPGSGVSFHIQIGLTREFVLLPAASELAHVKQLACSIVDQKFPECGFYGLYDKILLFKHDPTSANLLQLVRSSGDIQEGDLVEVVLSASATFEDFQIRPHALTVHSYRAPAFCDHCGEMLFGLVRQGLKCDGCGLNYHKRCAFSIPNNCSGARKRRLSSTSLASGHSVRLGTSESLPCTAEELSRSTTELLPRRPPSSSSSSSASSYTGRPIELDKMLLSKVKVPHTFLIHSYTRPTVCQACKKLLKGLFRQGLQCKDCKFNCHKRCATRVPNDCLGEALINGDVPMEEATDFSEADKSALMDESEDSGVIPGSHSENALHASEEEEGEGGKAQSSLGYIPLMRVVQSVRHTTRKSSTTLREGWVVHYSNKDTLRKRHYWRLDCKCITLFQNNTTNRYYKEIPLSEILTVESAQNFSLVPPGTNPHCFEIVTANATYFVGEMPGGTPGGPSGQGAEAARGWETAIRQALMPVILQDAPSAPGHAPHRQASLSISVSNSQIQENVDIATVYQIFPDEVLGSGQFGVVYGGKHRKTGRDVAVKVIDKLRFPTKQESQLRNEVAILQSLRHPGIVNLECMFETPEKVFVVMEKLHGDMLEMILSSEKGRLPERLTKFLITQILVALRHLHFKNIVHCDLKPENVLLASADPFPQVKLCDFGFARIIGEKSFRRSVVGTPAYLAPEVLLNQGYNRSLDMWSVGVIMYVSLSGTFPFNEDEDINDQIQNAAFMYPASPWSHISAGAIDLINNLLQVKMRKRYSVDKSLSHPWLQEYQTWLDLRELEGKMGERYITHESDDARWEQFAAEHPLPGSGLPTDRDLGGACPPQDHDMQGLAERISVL
T1 sequence (P11362 22-822 V561M): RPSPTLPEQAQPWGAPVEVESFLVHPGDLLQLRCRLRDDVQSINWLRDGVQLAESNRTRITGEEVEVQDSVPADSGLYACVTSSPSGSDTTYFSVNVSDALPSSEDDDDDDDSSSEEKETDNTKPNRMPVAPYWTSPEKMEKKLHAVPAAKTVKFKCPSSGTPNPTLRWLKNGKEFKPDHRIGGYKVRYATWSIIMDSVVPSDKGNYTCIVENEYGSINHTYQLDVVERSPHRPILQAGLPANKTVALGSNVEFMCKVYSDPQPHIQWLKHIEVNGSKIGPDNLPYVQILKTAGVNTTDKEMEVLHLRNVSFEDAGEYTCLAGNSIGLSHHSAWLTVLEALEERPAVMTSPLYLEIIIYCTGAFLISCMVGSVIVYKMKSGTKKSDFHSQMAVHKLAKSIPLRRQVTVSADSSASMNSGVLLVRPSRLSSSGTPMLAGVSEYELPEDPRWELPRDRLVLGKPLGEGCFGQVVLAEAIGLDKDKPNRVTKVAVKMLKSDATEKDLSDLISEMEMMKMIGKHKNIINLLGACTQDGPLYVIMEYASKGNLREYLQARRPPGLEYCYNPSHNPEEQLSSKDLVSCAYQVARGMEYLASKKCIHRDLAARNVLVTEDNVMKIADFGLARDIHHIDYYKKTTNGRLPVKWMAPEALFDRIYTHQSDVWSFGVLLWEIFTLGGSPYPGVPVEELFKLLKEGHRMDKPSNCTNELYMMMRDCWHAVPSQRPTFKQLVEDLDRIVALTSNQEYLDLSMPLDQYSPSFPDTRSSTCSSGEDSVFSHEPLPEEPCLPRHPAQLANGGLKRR
T4 sequence (Q9Y243 whole entry): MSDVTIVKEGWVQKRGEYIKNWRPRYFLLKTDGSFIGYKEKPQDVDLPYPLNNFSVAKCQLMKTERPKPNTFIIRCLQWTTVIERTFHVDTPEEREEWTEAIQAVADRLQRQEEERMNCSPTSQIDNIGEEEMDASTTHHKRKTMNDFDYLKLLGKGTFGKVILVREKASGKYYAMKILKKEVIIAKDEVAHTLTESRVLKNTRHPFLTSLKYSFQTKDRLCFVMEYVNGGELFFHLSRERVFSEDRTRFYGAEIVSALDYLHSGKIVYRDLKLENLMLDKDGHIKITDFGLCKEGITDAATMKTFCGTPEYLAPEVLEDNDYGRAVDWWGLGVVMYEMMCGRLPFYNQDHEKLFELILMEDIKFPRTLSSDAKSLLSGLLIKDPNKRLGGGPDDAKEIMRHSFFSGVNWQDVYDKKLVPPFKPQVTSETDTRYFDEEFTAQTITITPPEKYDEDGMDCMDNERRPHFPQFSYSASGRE
T3 sequence (P00533 25-1210 L861Q): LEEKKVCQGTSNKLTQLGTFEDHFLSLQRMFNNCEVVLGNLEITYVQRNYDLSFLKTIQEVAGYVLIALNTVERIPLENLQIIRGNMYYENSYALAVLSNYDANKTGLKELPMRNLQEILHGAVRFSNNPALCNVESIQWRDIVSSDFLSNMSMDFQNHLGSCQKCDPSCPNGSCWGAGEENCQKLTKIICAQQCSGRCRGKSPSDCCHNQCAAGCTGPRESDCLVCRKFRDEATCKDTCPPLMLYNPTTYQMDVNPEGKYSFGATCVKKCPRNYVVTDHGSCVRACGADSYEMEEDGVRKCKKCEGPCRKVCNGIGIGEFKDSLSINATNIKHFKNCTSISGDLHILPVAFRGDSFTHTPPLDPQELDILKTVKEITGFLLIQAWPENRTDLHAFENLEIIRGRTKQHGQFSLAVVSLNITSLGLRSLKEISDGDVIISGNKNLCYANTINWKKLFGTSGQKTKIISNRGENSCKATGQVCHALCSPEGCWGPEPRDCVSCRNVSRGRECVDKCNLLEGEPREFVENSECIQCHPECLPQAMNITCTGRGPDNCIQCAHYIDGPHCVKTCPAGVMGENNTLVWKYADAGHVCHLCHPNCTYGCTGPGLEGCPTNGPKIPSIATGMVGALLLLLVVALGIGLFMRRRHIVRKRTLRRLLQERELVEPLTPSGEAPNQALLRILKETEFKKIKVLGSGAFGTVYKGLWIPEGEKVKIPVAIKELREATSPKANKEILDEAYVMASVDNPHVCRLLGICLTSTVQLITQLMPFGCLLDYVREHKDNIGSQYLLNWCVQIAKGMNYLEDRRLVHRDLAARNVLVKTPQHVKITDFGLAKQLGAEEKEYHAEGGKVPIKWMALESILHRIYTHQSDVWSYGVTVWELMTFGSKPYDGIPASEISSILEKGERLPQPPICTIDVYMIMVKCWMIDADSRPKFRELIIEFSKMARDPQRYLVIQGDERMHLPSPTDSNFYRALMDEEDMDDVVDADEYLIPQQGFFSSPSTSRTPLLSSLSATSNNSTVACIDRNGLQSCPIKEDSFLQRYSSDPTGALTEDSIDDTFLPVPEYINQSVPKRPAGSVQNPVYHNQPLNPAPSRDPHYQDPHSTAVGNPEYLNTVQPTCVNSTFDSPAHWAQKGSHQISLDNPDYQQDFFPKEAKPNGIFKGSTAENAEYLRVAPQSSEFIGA
T5 sequence (P07947 whole entry): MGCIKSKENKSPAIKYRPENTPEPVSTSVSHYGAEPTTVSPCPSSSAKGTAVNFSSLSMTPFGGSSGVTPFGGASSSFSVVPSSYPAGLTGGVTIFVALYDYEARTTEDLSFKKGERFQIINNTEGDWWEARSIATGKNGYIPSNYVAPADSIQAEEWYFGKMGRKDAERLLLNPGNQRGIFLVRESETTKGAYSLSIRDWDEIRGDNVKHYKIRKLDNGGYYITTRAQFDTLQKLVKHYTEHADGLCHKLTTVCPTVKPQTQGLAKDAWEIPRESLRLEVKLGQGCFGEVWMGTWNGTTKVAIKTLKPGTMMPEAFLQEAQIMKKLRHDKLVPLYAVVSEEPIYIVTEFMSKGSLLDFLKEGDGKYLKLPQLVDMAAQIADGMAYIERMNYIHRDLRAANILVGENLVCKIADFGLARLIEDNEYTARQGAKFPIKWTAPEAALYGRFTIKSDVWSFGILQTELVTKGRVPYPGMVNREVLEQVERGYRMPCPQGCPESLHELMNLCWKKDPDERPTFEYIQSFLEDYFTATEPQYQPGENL
T6 sequence (P07948 whole entry): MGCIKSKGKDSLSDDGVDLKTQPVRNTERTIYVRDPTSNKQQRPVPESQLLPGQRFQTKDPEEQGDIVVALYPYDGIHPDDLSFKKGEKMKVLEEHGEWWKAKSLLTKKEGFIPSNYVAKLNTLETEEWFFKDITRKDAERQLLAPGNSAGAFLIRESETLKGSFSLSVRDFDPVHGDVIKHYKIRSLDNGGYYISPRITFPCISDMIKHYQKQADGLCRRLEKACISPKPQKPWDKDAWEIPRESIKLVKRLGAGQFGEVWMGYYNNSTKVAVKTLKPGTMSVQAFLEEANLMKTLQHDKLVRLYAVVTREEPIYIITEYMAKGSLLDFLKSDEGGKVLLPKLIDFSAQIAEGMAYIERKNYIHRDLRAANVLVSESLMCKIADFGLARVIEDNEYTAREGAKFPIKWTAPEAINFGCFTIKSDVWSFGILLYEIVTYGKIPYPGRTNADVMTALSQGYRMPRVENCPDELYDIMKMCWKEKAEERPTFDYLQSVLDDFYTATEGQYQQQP

## Cc1cc(/C=C/C#N)cc(C)c1Nc1ccnc(Nc2ccc(C#N)cc2)n1 [rilpivirine, (E)-4-((4-((4-(2-cyanoethenyl)-2,6-dimethylphenyl)amino)pyrimidin-2-yl)amino)benzonitrile]
PIM1 [1]
  Ki: 0.52 µM
K-562 cells; K562, 24 h
  GI50: 12.4 ± 2.16 µM
K-562 cells; K562, 48 h
  GI50: 8.43 ± 0.37 µM
K-562 cells; K562, 72 h
  GI50: 7.36 ± 0.24 µM
[2]; IV, 2 mg/kg single dose, 2 mg/kg
  Cmax: > 20 µM
[2]; PO, 50 mg/kg single dose, 50 mg/kg
  Cmax: > 20 µM
[2]; [4]
  AUC(0-t): 20 µM·h
  Tmax: 0.033 h
  half-life: 1.3 h
[2]; [5]
  AUC(0-t): 247 µM·h
  Tmax: 1.5 h
  bioavailability: 49.1%
  half-life: 4.91 h
[2]; male, BALB/c hairy, mouse, plasma, iv, 2 mg/kg, 2 mg/kg single dose
  Cmax: 22.4 µM
[2]; male, BALB/c hairy, mouse, plasma, po, 50 mg/kg, 50 mg/kg single dose
  Cmax: 33.3 µM
NB4 cells
  clonogenic growth: significantly decreased
HL-60 cells
  clonogenic growth: significantly decreased
FGFR1(V561M)(h)
  remaining activity at 1 µM: 97%
PKD2(h)
  remaining activity at 1 µM: 115%
EGFR(L861Q)(h)
  remaining activity at 1 µM: 35%
PKBγ(h)
  remaining activity at 1 µM: 86%
CK1(y)
  % Residual Activity: 92%
PIM1 [3]
  potency against PIM1 relative to Aurora A kinase: four-and-a-half-fold less potent
YES
  Ki: 1.57 µM
LYN
  Ki: 0.93 µM
HL-60 xenograft
  day from which reduction in tumour growth was statistically significant (p < 0.001): ≥ 11 days
  signs of toxicity or weight loss during treatment: did not cause any apparent signs of toxicity or weight loss
  tumour growth compared with vehicle-treated group: noticeable delay in tumour growth

— publication PMC9954146, “Anti-Leukaemic Activity of Rilpivirine Is Mediated by Aurora A Kinase Inhibition” (Cancers, 2023)
